The test deals with Glutamate receptor ionotropic, NMDA 1 (Rattus norvegicus, UniProt P35439).

“And” between values parts separate entries of the source, which are not always exact repeats. Equal values may be shown once.

We go through two molecules from BindingDB's records for doi:10.1016/0028-3908(95)00017-z (Merz, 1995).

Turning to `N[C@@H](Cc1ccc(Cl)cc1)C(=O)O` [CAS_7424-00-2], the Ki was 42.2 nM and 180 nM.
As to `CN[C@@]1(c2ccccc2Cl)CCCCC1=O` [2-(2-Chloro-phenyl)-2-methylamino-cyclohexanone(Ketamine)], the Ki was 1190 nM and 2510 nM.

Usually Ki stands for the equilibrium dissociation constant of an inhibitor or competing ligand from its target. Low values mean tighter binding, high ones weaker binding.
